Experimental data published in US12257247B2 (Monte Rosa Therapeutics AG, priority 2023, dated 2025).
Like-named read-outs stand apart in the source and are kept apart here.

Molecular target: T1, VAV1 (Homo sapiens, UniProt P15498+Q96SW2)
T1 construct: A heterozygous VAV1 C-terminal HiBiT knock-in pool was generated at Monte Rosa Therapeutics from a clonal Jurkat cell; endogenous in cells; host or cells: Jurkat clone stably expressing LgBiT, homozygous GSPT1-G575N; heterozygous VAV1-HiBiT knock-in pool
Assay: VAV1 degradation activity, VAV1-HiBiT knock-in Jurkat luminescence assay (Example A, Table 1)
Type: cell-based
Settings: VAV1-HiBiT knock-in Jurkat cells; for Dmax: Jurkat
How it was run: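 Jurkat cells carrying VAV1-HiBiT knock-in, plated in RPMI/10% FBS with Endurazine live-cell substrate and pre-incubated ~16 h at 37° C. Compound dosed from 10 μM stock; luminescence read 6 and 24 h later. Response normalised to plate negative/positive controls, EC50 from 3-parameter logistic fit (hillslope 1).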

[1] = luminescence read at 6 and 24 hours, read-out: VAV1 Dmax %
[2] = luminescence read at 6 and 24 hours, read-out: VAV1 Dmax %, class
[3] = luminescence read at 6 and 24 hours, read-out: VAV1 DC50
[4] = luminescence read at 6 and 24 hours, read-out: VAV1 DC50 (nM), class
[5] = luminescence read at 6 and 24 hours after compound addition, read-out: VAV1 Dmax %
[6] = luminescence read at 6 and 24 hours after compound addition, read-out: VAV1 Dmax %, class
[7] = luminescence read at 6 and 24 hours after compound addition, read-out: VAV1 DC50
[8] = luminescence read at 6 and 24 hours after compound addition, read-out: VAV1 DC50 (nM), class

Structure (SMILES)	Dmax [1]	Dmax [2]	DC50 [3]	DC50 [4]	Dmax [5]	Dmax [6]	DC50 [7]	DC50 [8]	VAV1 Dmax % (luminescence read at 6 and 24 hours)
O=C1CCC(c2cccc(-c3ccc(S(=O)(=O)N4CCCC4)cc3)c2Cl)C(=O)N1 (centres unmarked) [Compound 438, 3-(2-chloro-4′-(pyrrolidin-1-ylsulfonyl)-[1,1′-biphenyl]-3-yl) piperidine-2,6-dione]	90.5%	> 90%	91.7 nM	≤ 100 nM	–	–	–	–	–
O=C1CCC(c2cccc(-c3ccc(Cn4ccccc4=O)cc3)c2)C(=O)N1 (centres unmarked) [Compound 239, 3-(4′-((2-oxopyridin-1(2H)-yl)methyl)-[1,1′-biphenyl]-3-yl)piperidine-2,6-dione]	63.4%	60 to 90%	341 nM	100 to 1000 nM	–	–	–	–	–
O=C1CCC(c2cccc(-c3ccc(CCN4CCOCC4)cc3)c2Cl)C(=O)N1 (centres unmarked) [Compound 122]	81.3%	60 to 90%	48.8 nM	≤ 100 nM	–	–	–	–	–
Nc1ncn(Cc2ccc(-c3cccc(C4CCC(=O)NC4=O)c3Cl)cc2)n1 (centres unmarked) [Compound 110]	89.2%	60 to 90%	22.3 nM	≤ 100 nM	–	–	–	–	–
Cn1cnc(CN2C(=O)Cc3cc(-c4cccc(C5CCC(=O)NC5=O)c4Cl)ccc32)c1 (centres unmarked) [Compound 504, 3-(2-chloro-3-(1-((1-methyl-1H-imidazol-4-yl)methyl)-2-oxoindolin-5-yl)phenyl)piperidine-2,6-dione]	–	–	–	–	96.7%	> 90%	5.5 nM	≤ 100 nM	–
O=C1CCC(c2cccc(-c3ccc(Cc4cocn4)cc3)c2Cl)C(=O)N1 (centres unmarked) [Compound 442, 3-(2-chloro-4′-(oxazol-4-ylmethyl)-[1,1′-biphenyl]-3-yl)piperidine-2,6-dione]	95.8%	> 90%	34.5 nM	≤ 100 nM	–	–	–	–	–
O=C1CCC(c2cccc(-c3ccc(CN4CCCCC4=O)nc3)c2Cl)C(=O)N1 (centres unmarked) [Compound 433, 3-(2-chloro-3-(6-((2-oxopiperidin-1-yl)methyl)pyridin-3-yl)phenyl)piperidine-2,6-dione]	33.6%	< 60%	≥ 10000 nM	> 1000 nM	–	–	–	–	–
O=C1CCC(c2cccc(-c3ccc(N4C(=O)C[C@@H]5CCC[C@@H]54)cc3)c2Cl)C(=O)N1 (some centres unmarked) [Compound 327]	89.3%	60 to 90%	30.1 nM	≤ 100 nM	–	–	–	–	–
Nc1ccc(-c2cccc(C3CCC(=O)NC3=O)c2Cl)cc1Cl (centres unmarked) [Compound 105]	97.7%	> 90%	18.1 nM	≤ 100 nM	–	–	–	–	–
O=C1CCC(c2cccc(-c3ccc(N4CCn5cncc5C4=O)cc3)c2Cl)C(=O)N1 (centres unmarked) [Compound 315]	89.8%	60 to 90%	22 nM	≤ 100 nM	–	–	–	–	–
CC(=O)Nc1ccc(-c2cccc(C3CCC(=O)NC3=O)c2Cl)cc1 (centres unmarked) [Compound 128]	81.1%	60 to 90%	67.4 nM	≤ 100 nM	–	–	–	–	–
Cn1ccc(CN2C(=O)Cc3cc(-c4cccc(C5CCC(=O)NC5=O)c4Cl)ccc32)n1 (centres unmarked) [Compound 496, 3-(2-chloro-3-(1-((1-methyl-1H-pyrazol-3-yl)methyl)-2-oxoindolin-5-yl)phenyl)piperidine-2,6-dione]	–	–	–	–	95.6%	> 90%	12.7 nM	≤ 100 nM	–
O=C1CCC(c2c(F)ccc(-c3ccc(Cn4ccccc4=O)cc3)c2F)C(=O)N1 (centres unmarked) [Compound 147, 3-(2,4-difluoro-4′-((2-oxopyridin-1(2H)-yl)methyl)-[1,1′-biphenyl]-3-yl)piperidine-2,6-dione]	33.3%	< 60%	≥ 10000 nM	> 1000 nM	–	–	–	–	33.28%
Cn1ccc(OCc2ccc(-c3cccc(C4CCC(=O)NC4=O)c3Cl)cc2)n1 (centres unmarked) [Compound 160, 3-(2-chloro-4′-(((1-methyl-1H-pyrazol-3-yl)oxy)methyl)-[1,1′-biphenyl]-3-yl)piperidine-2,6-dione]	94.5%	> 90%	18.5 nM	≤ 100 nM	–	–	–	–	–
CN1Cc2cc(-c3cccc(C4CCC(=O)NC4=O)c3Cl)ccc2N(Cc2ccn(C)n2)C1=O (centres unmarked) [Compound 503, 3-(2-chloro-3-(3-methyl-1-((1-methyl-1H-pyrazol-3-yl)methyl)-2-oxo-1,2,3,4-tetrahydroquinazolin-6-yl)phenyl)piperidine-2,6-dione]	–	–	–	–	90%	60 to 90%	4.73 nM	≤ 100 nM	–

Next, values leading:

Dmax [1]	Dmax [2]	DC50 [3]	DC50 [4]	Dmax [5]	Dmax [6]	DC50 [7]	DC50 [8]	VAV1 Dmax % (luminescence read at 6 and 24 hours)	Structure (SMILES)
96.2%	> 90%	6.66 nM	≤ 100 nM	–	–	–	–	–	C[C@H]1COCC(=O)N1c1ccc(-c2cccc(C3CCC(=O)NC3=O)c2Cl)cc1 (some centres unmarked) [Compound 325]
93.5%	> 90%	13.9 nM	≤ 100 nM	–	–	–	–	–	C[C@@H]1CCC(=O)N1c1ccc(-c2cccc(C3CCC(=O)NC3=O)c2Cl)cc1 (some centres unmarked) [Compound 303]
98.2%	> 90%	1.99 nM	≤ 100 nM	–	–	–	–	–	COCc1ccn(C)c(=O)c1-c1ccc(-c2cccc(C3CCC(=O)NC3=O)c2Cl)cc1 (centres unmarked) [Compound 411, 3-(2-chloro-4′-(4-(methoxymethyl)-1-methyl-2-oxo-1,2-dihydropyridin-3-yl)-[1,1′-biphenyl]-3-yl)piperidine-2,6-dione]
95.8%	> 90%	12.2 nM	≤ 100 nM	–	–	–	–	–	O=C1CCC(c2cccc(-c3ccc(N4CCCOC4=O)cc3)c2Cl)C(=O)N1 (centres unmarked) [Compound 204, 3-(2-chloro-4′-(2-oxo-1,3-oxazinan-3-yl)-[1,1′-biphenyl]-3-yl)piperidine-2,6-dione]
94.8%	> 90%	9.46 nM	≤ 100 nM	–	–	–	–	–	O=C1CCC(c2cccc(-c3ccc(N4CCC(F)(F)CC4=O)cc3)c2Cl)C(=O)N1 (centres unmarked) [Compound 464, 3-(2-chloro-4′-(4,4-difluoro-2-oxopiperidin-1-yl)-[1,1′-biphenyl]-3-yl)piperidine-2,6-dione]
96%	> 90%	11.5 nM	≤ 100 nM	–	–	–	–	–	O=C1CCC(c2cccc(-c3ccc(N4CCN(CC(F)(F)F)CC4=O)cc3)c2Cl)C(=O)N1 (centres unmarked) [Compound 445, 3-(2-chloro-4′-(2-oxo-4-(2,2,2-trifluoroethyl)piperazin-1-yl)-[1,1′-biphenyl]-3-yl)piperidine-2,6-dione]
92.1%	> 90%	11.6 nM	≤ 100 nM	–	–	–	–	–	Cc1cccc(=O)n1Cc1ccc(-c2cccc(C3CCC(=O)NC3=O)c2Cl)cc1 (centres unmarked) [Compound 184, 3-(2-chloro-4′-((6-methyl-2-oxopyridin-1(2H)-yl)methyl)-[1,1′-biphenyl]-3-yl)piperidine-2,6-dione]
88.8%	60 to 90%	11.5 nM	≤ 100 nM	–	–	–	–	–	Cn1ccc(CNc2ccc(-c3cccc(C4CCC(=O)NC4=O)c3Cl)cc2)n1 (centres unmarked) [Compound 180, 3-(2-chloro-4′-(((1-methyl-1H-pyrazol-3-yl)methyl)amino)-[1,1′-biphenyl]-3-yl)piperidine-2,6-dione]
94.3%	> 90%	17.1 nM	≤ 100 nM	–	–	–	–	–	O=C1CCC(c2cccc(-c3ccc(CN4Cc5cnccc5C4=O)cc3)c2Cl)C(=O)N1 (centres unmarked) [Compound 300]
98%	> 90%	4.41 nM	≤ 100 nM	–	–	–	–	–	Cn1ccc(Cc2ccc(-c3cccc(C4CCC(=O)NC4=O)c3Cl)cc2)n1 (centres unmarked) [Compound 176, 3-(2-chloro-4′-((1-methyl-1H-pyrazol-3-yl)methyl)-[1,1′-biphenyl]-3-yl)piperidine-2,6-dione]
95.2%	> 90%	7.82 nM	≤ 100 nM	–	–	–	–	–	CN1CCC[C@H](c2ccc(-c3cccc(C4CCC(=O)NC4=O)c3Cl)cc2)C1=O (stereo partly drawn) [Compound 409, 3-(2-chloro-4′-((R)-1-methyl-2-oxopiperidin-3-yl)-[1,1′-biphenyl]-3-yl)piperidine-2,6-dione]
96.4%	> 90%	11.5 nM	≤ 100 nM	–	–	–	–	–	CC1CN(Cc2ccc(-c3cccc(C4CCC(=O)NC4=O)c3Cl)cc2)C(=O)C(C)O1 (centres unmarked) [Compound 267]
98.7%	> 90%	1.63 nM	≤ 100 nM	–	–	–	–	–	Cc1ccn(C)c(=O)c1-c1ccc(-c2cccc(C3CCC(=O)NC3=O)c2Cl)cc1 (centres unmarked) [Compound 448, 3-(2-chloro-4′-(1,4-dimethyl-2-oxo-1,2-dihydropyridin-3-yl)-[1,1′-biphenyl]-3-yl)piperidine-2,6-dione]
95.3%	> 90%	9.94 nM	≤ 100 nM	–	–	–	–	–	CN1CCCN(Cc2ccc(-c3cccc(C4CCC(=O)NC4=O)c3Cl)cc2)C1=O (centres unmarked) [Compound 424, 3-(2-chloro-4′-((3-methyl-2-oxotetrahydropyrimidin-1(2H)-yl)methyl)-[1,1′-biphenyl]-3-yl)piperidine-2,6-dione]
96.3%	> 90%	11.6 nM	≤ 100 nM	–	–	–	–	–	O=C1CCC(c2cccc(-c3ccc(OCc4cccnc4)cc3)c2Cl)C(=O)N1 (centres unmarked) [Compound 123]
90.4%	> 90%	16.4 nM	≤ 100 nM	–	–	–	–	–	O=C1CCC(c2cccc(-c3ccc(N4C(=O)CCCC4=O)cc3)c2Cl)C(=O)N1 (centres unmarked) [Compound 205, 1-(2′-chloro-3′-(2,6-dioxopiperidin-3-yl)-[1,1′-biphenyl]-4-yl)piperidine-2,6-dione]
